Patent US20150208654A1, “SEED COATING METHODS AND COMPOSITIONS WITH A RYANODINE RECEPTOR BINDING AGENT” (PIONEER HI-BRED INTERNATIONAL, INC., priority 2012, published 2015)

Tests used:
Format in all cases: in vivo
[1] = system: velvetbean caterpillar (VBC) (Anticarsia gemmatalis); test: Laboratory-field leaf bio-assay (LBF) on leaves of soybean plants grown from treated seeds; conditions: seed treatment 120 ug ai/seed, 2nd instar larvae
Experimental: Soybean seeds were treated with chlorantraniliprole at rates of 120 ug ai/seed. The seeds were sown into soil bed fields with a size of 6 meters in length and 4 rows of 40 cm in width. Leaf samples were collected at the 3rd to the 7th soybean trifoliate growth stage and brought to the laboratory. Laboratory-field leaf bio-assay (LBF) was performed for each soybean growth stage using velvetbean caterpillar (VBC) (Anticarsia gemmatalis) exposing the leaves to 2nd instar larvae stage. Each treatment group was replicated 4 times, and results (Table 2) are expressed as % larval mortality. At 43 days after planting, the VBC larval mortality rate was 88%.

[2] = system: velvetbean caterpillar (VBC) (Anticarsia gemmatalis); test: Field plot larvae count on soybean grown from treated seeds (area 1); conditions: 100 ug ai/seed, compared to untreated
Experimental: (§1) Soybean seeds were treated with chlorantraniliprole at rate of 100 ug ai/seed. The seeds were sown into soil bed fields (area 1) with a size of 8 meters by 8 meters in size, with an area of 64 m2. Plots were replicated 4 times. Evaluation was based on the total number of velvetbean caterpillar (VBC) (Anticarsia gemmatalis) larvae per meter at 37 to 63 days after planting (DAP), and converted to % larvae count reduction compared to the untreated (Table 3). 50 days after planting, the VBC larvae reduction was still 73%, and after 63 days had activity at 35%.

[3] = system: velvetbean caterpillar (VBC) (Anticarsia gemmatalis); test: Field plot larvae count on soybean grown from treated seeds (area 2); conditions: 100 ug ai/seed, compared to untreated
Experimental: as §1, with “2)” for “1)”, “untreated.” for “untreated (Table 3). 50 days after planting, the VBC larvae reduction was still 73%, and after 63 days had activity at 35%.”

Q: How did the “% VBC larval mortality” value ([1]; 3rd trifoliate, 25 DAP) turn out when CNC(=O)c1cc(Cl)cc(C)c1NC(=O)c1cc(Br)nn1-c1ncccc1Cl [Chlorantraniliprole, chlorantraniliprole] was run?
A: 100%

Q: And the “% VBC larval mortality” value ([1]; 4th trifoliate, 29 DAP)?
A: 94%

Q: And the “% VBC larval mortality” value ([1]; 5th trifoliate, 36 DAP)?
A: 91%

Q: And the “% VBC larval mortality” value ([1]; 7th trifoliate, 43 DAP)?
A: 88%

Q: And the “% VBC larvae reduction” value ([2]; 37 DAP)?
A: 20%

Q: And the “% VBC larvae reduction” value ([2]; 50 DAP)?
A: 73%

Q: What about the “% VBC larvae reduction” value ([2]; 63 DAP) of the same molecule?
A: 35%

Q: What about the “% VBC larvae reduction” value ([3]; 37 DAP) of the same molecule?
A: 25%

Q: And the “% VBC larvae reduction” value ([3]; 50 DAP)?
A: 20%

Q: And the “% VBC larvae reduction” value ([3]; 63 DAP)?
A: 43%
